Holding throughout (assay type): in vivo
For experiment [1], the system named is Ctenocephalides felis. The experiment is described as follows: Ctenocephalides felis in vitro contact test with adult cat fleas. To be noted: 5 μg/cm^2 (500 g/ha), after 48 h. The method, then:
Ctenocephalides felis—In Vitro Contact Tests with Adult Cat Fleas
(§1) For the coating of the test tubes, 9 mg of active compound are first dissolved in 1 ml of acetone p.a. and then diluted to the desired concentration with acetone p.a. 250 μl of the solution are distributed homogeneously on the inner walls and the base of a 25 ml test tube by turning and rocking on an orbital shaker (rocking rotation at 30 rpm for 2 h). With 900 ppm active compound solution and internal surface 44.7 cm^2, given homogeneous distribution, an area-based dose of 5 μg/cm^2 is achieved.
After the solvent has evaporated off, the tubes are populated with 5-10 adult cat fleas (Ctenocephalides felis), sealed with a perforated plastic lid and incubated in a horizontal position at room temperature and ambient humidity. After 48 h, efficacy is determined. To this end, the test tubes are stood upright and the fleas are knocked to the base of the tube. Fleas which remain motionless at the base or move in an uncoordinated manner are considered to be dead or moribund.
100% efficacy means that all the fleas were dead or moribund. 0% efficacy means that no fleas were harmed.

For a further experiment, the system named is Phaedon cochleariae. The experiment is described as follows: Phaedon cochleariae spray test. To be noted: 500 g/ha, after 7 days, larvae on Chinese cabbage leaf discs. The method, then:
Phaedon cochleariae—Spray Test
(§2) Solvent: 78.0 parts by weight of acetone • • 1.5 parts by weight of dimethylformamide
(§3) Emulsifier: alkylaryl polyglycol ether
(§4) To produce a suitable preparation of active compound, 1 part by weight of active compound is dissolved using the stated parts by weight of solvent and made up with water containing an emulsifier concentration of 1000 ppm until the desired concentration is attained. To produce further test concentrations, the preparation is diluted with emulsifier-containing water.
After 7 days, the efficacy in % is determined. 100% means that all the beetle larvae have been killed; 0% means that no beetle larvae have been killed.

For the next experiment, the system named is Musca domestica. Kind of experiment: Musca domestica test. To be noted: after 2 days, adult houseflies. The method, then: (§5) Solvent: dimethyl sulphoxide
(§6) To produce a suitable preparation of active compound, 10 mg of active compound are mixed with 0.5 ml of dimethyl sulphoxide, and the concentrate is diluted with water to the desired concentration.
Vessels containing a sponge treated with sugar solution and the active compound preparation of the desired concentration are populated with 10 adult houseflies (Musca domestica).
After 2 days, the kill in % is determined. 100% means that all of the flies have been killed; 0% means that none of the flies have been killed.

The subject of experiment [2] is Ctenocephalides felis. Kind of experiment: Ctenocephalides felis oral test. To be noted: 100 ppm in citrated cattle blood, after 2 days. An excerpt: Ctenocephalides felis—Oral Test Solvent: dimethyl sulphoxide […] Dilution with citrated cattle blood gives the desired concentration. About 20 unfed adult cat fleas (Ctenocephalides felis) are placed into a chamber which is closed at the top and bottom with gauze. A metal cylinder whose bottom end is closed with parafilm is placed onto the chamber. The cylinder contains the blood/active compound preparation, which can be imbibed by the fleas through the parafilm membrane.

For the next experiment, the system named is Lucilia cuprina. Kind of experiment: Lucilia cuprina test. To be noted: 100 ppm, after 2 days, L1 larvae. On the procedure: as §5, §6
About 20 L1 larvae of the Australian sheep blowfly (Lucilia cuprina) are transferred into a test vessel containing minced horsemeat and the active compound preparation of the desired concentration.
After 2 days, the kill in % is determined. 100% means that all the larvae have been killed; 0% means that no larvae have been killed.

Experiment [3] deals with Myzus persicae. Kind of experiment: Myzus persicae spray test (Chinese cabbage leaf discs). To be noted: 500 g/ha, after 6 days. On the procedure: Myzus persicae—Spray Test Solvent: 78 parts by weight of acetone • • 1.5 parts by weight of dimethylformamide Emulsifier: alkylaryl polyglycol ether […] To produce further test concentrations, the preparation is diluted with emulsifier-containing water. Discs of Chinese cabbage leaves (Brassica pekinensis) infested by all stages of the green peach aphid (Myzus persicae) are sprayed with an active compound preparation of the desired concentration.

Experiment [4] relates to Myzus persicae. The experiment is described as follows: Myzus persicae spray test (bell pepper plants). To be noted: 100 ppm, after 6 days. The method, then: Myzus persicae Spray Test Solvent: 7 parts by weight of dimethylformamide Emulsifier: alkylaryl polyglycol ether […] To produce further test concentrations, the preparation is diluted with emulsifier-containing water. If the addition of ammonium salts or/and penetrants is required, these are each added in a concentration of 1000 ppm to the formulation solution. Bell pepper plants (Capsicum annuum) severely infested with the green peach aphid (Myzus persicae) are treated by spraying with the active compound preparation in the desired concentration.

Experiment [5] deals with Spodoptera frugiperda. Kind of experiment: Spodoptera frugiperda spray test (maize leaf discs). To be noted: 500 g/ha, after 7 days, caterpillars on maize leaf discs. On the procedure:
Spodoptera frugiperda—Spray Test Solvent: 78.0 parts by weight of acetone • • 1.5 parts by weight of dimethylformamide Emulsifier: alkylaryl polyglycol ether […] To produce further test concentrations, the preparation is diluted with emulsifier-containing water. Leaf discs of maize (Zea mays) are sprayed with an active compound preparation of the desired concentration and, after drying, populated with caterpillars of the armyworm (Spodoptera frugiperda).

For a further experiment, the system named is Meloidogyne incognita. The experiment is described as follows: Meloidogyne incognita test. To be noted: 20 ppm, after 14 days, lettuce. The method, then: Meloidogyne incognita Test
Solvent: 125.0 parts by weight of acetone
To produce a suitable preparation of active compound, 1 part by weight of active compound is mixed with the stated amount of solvent and the concentrate is diluted with water to the desired concentration.
Vessels are filled with sand, active compound solution, an egg/larvae suspension of the southern root-knot nematode (Meloidogyne incognita) and lettuce seeds. The lettuce seeds germinate and the plants develop. The galls develop on the roots.
After 14 days, the nematicidal efficacy in % is determined by the formation of galls. 100% means that no galls were found; 0% means that the number of galls on the treated plants corresponds to the untreated control.

A further experiment concerns Tetranychus urticae. The experiment is described as follows: Tetranychus urticae spray test, OP-resistant. To be noted: 500 g/ha, after 6 days, bean leaf discs. On the procedure:
Tetranychus urticae—Spray Test, OP-Resistant
as §2, §3, §4
Discs of bean leaves (Phaseolus vulgaris) infested with all stages of the greenhouse red spider mite (Tetranychus urticae) are sprayed with an active compound preparation of the desired concentration.
After 6 days, the efficacy in % is determined. 100% means that all the spider mites have been killed; 0% means that no spider mites have been killed.

Another experiment has as its system Boophilus microplus. The experiment is described as follows: Boophilus microplus injection test. To be noted: 20 μg/animal, assessed after 7 days. On the procedure: Boophilus microplus—Injection Test
as §5
To produce a suitable preparation of active compound, 10 mg of active compound are mixed with 0.5 ml of solvent and the concentrate is diluted with solvent to the desired concentration.
1 μl of the active compound solution is injected into the abdomen of 5 engorged adult female cattle ticks (Boophilus microplus). The animals are transferred into dishes and kept in a climate-controlled room.
Efficacy is assessed after 7 days by laying of fertile eggs. Eggs which are not visibly fertile are stored in a climate-controlled cabinet until the larvae hatch after about 42 days. An efficacy of 100% means that none of the ticks has laid any fertile eggs; 0% means that all the eggs are fertile.

A further experiment relates to Rhipicephalus sanguineus. The experiment is described as follows: Rhipicephalus sanguineus in vitro contact test with adult brown dog ticks. To be noted: 5 μg/cm^2 (500 g/ha), after 48 h. The method, then: Rhipicephalus sanguineus—In Vitro Contact Tests with Adult Brown Dog Ticks
as §1
After the solvent has evaporated off, the tubes are populated with 5-10 adult dog ticks (Rhipicephalus sanguineus), sealed with a perforated plastic lid and incubated in a horizontal position in the dark at room temperature and ambient humidity. After 48 h, efficacy is determined. To this end, the ticks are knocked to the floor of the tube and incubated on a hotplate at 45-50° C. for not more than 5 min. Ticks which remain motionless on the floor or move in such an uncoordinated manner that they are unable to deliberately avoid the heat by climbing upwards are considered to be dead or moribund.
An efficacy of 100% means that all the ticks were dead or moribund. 0% efficacy means that none of the ticks had been harmed.

Experiment [6] deals with Spodoptera frugiperda. The experiment is described as follows: Spodoptera frugiperda spray test (cotton leaves). To be noted: 100 ppm, after 7 days. On the procedure:
Spodoptera frugiperda—Spray Test
Solvent: 7 parts by weight of dimethylformamide
as §3
To produce a suitable preparation of active compound, 1 part by weight of active compound is dissolved using the stated parts by weight of solvent and made up with water containing an emulsifier concentration of 1000 ppm until the desired concentration is attained. To produce further test concentrations, the preparation is diluted with emulsifier-containing water. If the addition of ammonium salts or/and penetrants is required, these are each added in a concentration of 1000 ppm to the formulation solution.
Cotton leaves (Gossypium hirsutum) are sprayed with an active compound formulation of the desired concentration and populated with caterpillars of the armyworm (Spodoptera frugiperda).
After 7 days, the kill in % is determined. 100% means that all the caterpillars have been killed; 0% means that none of the caterpillars have been killed.

SMILES strings stand for the structures.

Regarding `CCS(=O)(=O)c1ccc(-n2cnc(Cl)n2)nc1-c1nc2cc(C(F)(F)F)ncc2n1C` [Example 18], the efficacy with Ctenocephalides felis [1], in the experiment on Phaedon cochleariae and with Myzus persicae [3] was 100% in each case. For the same compound, the “efficacy (kill)” value in the experiment with Musca domestica (20 ppm), in the experiment on Ctenocephalides felis [2] and in the experiment with Lucilia cuprina was 100% in each case.

In the case of `CCS(=O)(=O)c1ccc(N2CCOCC2)nc1-c1nc2cc(C(F)(F)F)ncc2n1C` [Example 1], the “efficacy (kill)” value in the experiment with Ctenocephalides felis [2] worked out at 98%; in the experiment with Lucilia cuprina, 90%; in the experiment with Myzus persicae [4], 95%.

Turning to `CCS(=O)(=O)c1ccc(-c2cnc(Cl)n2C)nc1-c1nc2cc(C(F)(F)F)ncc2n1C` [Example 81], the values for the efficacy with Phaedon cochleariae, in the experiment on Myzus persicae [3] and in the experiment with Spodoptera frugiperda [5] were 100%, 90% and 83%, respectively. For the same compound, in the experiment with Meloidogyne incognita, the “nematicidal efficacy (formation of galls)” value amounted to 100%.

On to `CCS(=O)(=O)c1ccc(-n2ccnc2)nc1-c1nc2cc(C(F)(F)F)ncc2n1C` [Example 33], for which the efficacy in the experiment on Tetranychus urticae worked out at 90%; in the experiment on Ctenocephalides felis [1], 100%; in the experiment on Phaedon cochleariae, 100%; in the experiment on Myzus persicae [3], 90%. For the same compound, the “efficacy (kill)” value in the experiment with Ctenocephalides felis [2] was found to be 100%. For the same compound, the “efficacy (laying of fertile eggs)” value in the experiment with Boophilus microplus worked out at 80%.

As to `CCS(=O)(=O)c1ccc(-n2cnc(NC(C)=O)n2)nc1-c1nc2cc(C(F)(F)F)ncc2n1C` [Example 11], the efficacy in the experiment with Ctenocephalides felis [1] and in the experiment on Phaedon cochleariae was 100% in each case. The “efficacy (kill)” value with Ctenocephalides felis [2], in the experiment on Lucilia cuprina and in the experiment with Myzus persicae [4] was 100% in each case.

As to `CCS(=O)(=O)c1ccc(-n2nccn2)nc1-c1nc2cc(C(F)(F)F)ncc2n1C` [Example 17], the efficacy in the experiment with Ctenocephalides felis [1] came out at 100%; in the experiment with Phaedon cochleariae, 100%; in the experiment with Myzus persicae [3], 90%; with Spodoptera frugiperda [5], 100%; in the experiment with Rhipicephalus sanguineus, 100%. In addition, the entries for the “efficacy (kill)” value with Musca domestica (20 ppm), in the experiment on Ctenocephalides felis [2] and in the experiment on Lucilia cuprina were 85%, 98% and 100%, respectively. For the same compound, in the experiment on Boophilus microplus, the “efficacy (laying of fertile eggs)” value came out at 100%.

Regarding `CCS(=O)(=O)c1ccc(-n2ccc(C(F)F)n2)nc1-c1nc2cc(C(F)(F)F)ncc2n1C` [Example 8], the efficacy in the experiment with Ctenocephalides felis [1], with Phaedon cochleariae, in the experiment on Myzus persicae [3] and in the experiment with Spodoptera frugiperda [5] was 100% throughout. For the same compound, the “efficacy (kill)” value turned out to be 100% with Musca domestica (100 ppm), 95% with Ctenocephalides felis [2] and 100% in the experiment with Lucilia cuprina. In addition, in the experiment with Boophilus microplus, the “efficacy (laying of fertile eggs)” value is listed as 95%.

Take `CCS(=O)(=O)c1ccc(-n2cnc(I)c2)nc1-c1nc2cc(C(F)(F)F)ncc2n1C` [Example 14]: the efficacy with Ctenocephalides felis [1], in the experiment with Phaedon cochleariae and in the experiment with Myzus persicae [3] was 100% throughout. The “efficacy (kill)” value in the experiment with Ctenocephalides felis [2], in the experiment with Lucilia cuprina and in the experiment with Spodoptera frugiperda [6] was 100% in each case. For the same compound, in the experiment with Meloidogyne incognita, the “nematicidal efficacy (formation of galls)” value is 100%.

As to `CCS(=O)(=O)c1ccc(-n2cncn2)nc1-c1nc2cc(C(F)(F)F)ncc2n1C` [Example 32], the efficacy with Phaedon cochleariae and in the experiment with Myzus persicae [3] was 100% in each case. Also, the “efficacy (kill)” value in the experiment with Spodoptera frugiperda [6] is on record as 100%.
